Experimental data as given in patent US8524302B2, “Natural flavour enhancers and methods for making same” (Pepsico, priority 2009, dated 2013).
“Also recorded” adds a separate entry of the source.

Columns and labels:
Type in all cases: in vivo
[1] = system: sensory panel; assay: Sensory (triangle) tests: kokumi intensity in chicken broth; conditions: for Kokumi intensity (0-5): pH 6.5, scale 0-5 (blank = 2)
Experimental: (§1) Unless otherwise indicated, all sensory tests for the samples are determined using triangle tests (Wieser and Belitz, Z. Lebensm. Unters. Forsch., 1975, 159, 65-72) in three different sessions. The sensory panel is trained to evaluate aqueous solutions (2 mL each) of the following reference taste compounds dissolved in bottled water with a pH of 6.0: sucrose (25 mmol/L) for sweet taste; lactic acid (20 mmol/L) for sour taste; NaCl (30 mmol/L) for salty taste; caffeine (1 mmol/L) for bitter taste; and MSG (3 mmol/L) for umami taste, tannic acid (0.05%) for puckering astringency, and quercetin-O-β-D-glucopyranoside (0.01 mmol/L) for a velvety astringent, mouth-drying oral sensation. For the training of viscosity, a gelatin solution (0.5% in water) was used. […] Sensory analyses were performed in a sensory panel room at 19-22° C. in three different sessions using nose clamps.
(§2) For recording the taste profiles, samples are prepared as indicated in the examples below. Flavor profiles of samples are determined in a triangle test in three different sessions. Panelists refrain from eating or drinking for at least 1 hour prior to the session. At the start of the session and before each trial, the subjects rinsed with water and expectorated. The participants receive a set of two blanks and one taste sample. Liquids are swirled around in the mouth briefly and expectorated. […] Each sample with additive is compared to two reference samples without additives. Kokumi intensity is rated according to a scale from 0 to 5 (with 5 being the most intensive). Punch refers to an initial kokumi sensation experienced in the mouth within 0-3 seconds from the time when a food or liquid is put in the mouth, while long-lasting refers to kokumi felt after 10-60 seconds therefrom.
Sensory (triangle) tests are performed by dilution of 3 grams of chicken broth concentrate (Gourmet Bouillon Huhn; Maggi, Singen, Germany) with 100 mL water (Evian®). Additives are added as specified in table below. The pH-value of all samples is adjusted to 6.5 using formic acid (0.1 mol/L) or sodium hydroxide (0.1 mol/L). […] For each sample, kokumi intensity is rated and panelists were asked to describe sensory characteristics.

[2] = system: sensory panel; assay: Sensory (triangle) tests of the compounds in water; conditions: for Sensory descriptors: pH 6.5; for Intensity (0-5): pH 6.5, aroma and taste intensity, scale 0-5; for kokumi sensation (in words): without inducing or glutamate-containing composition
Experimental: as §1, §2
Sensory (triangle) tests are performed by dissolving the listed compounds in water (Evian®). Additives are added as specified in table below. The pH-value of all samples is adjusted to 6.5 using formic acid (0.1 mol/L) or sodium hydroxide (0.1 mol/L). For each sample, aroma and taste intensity is rated and panelists are asked to describe sensory characteristics.

[3] = system: sensory panel; assay: Sensory tests (organoleptic evaluation) of compounds added to inducing compositions; conditions: for kokumi sensation / flavour enhancing sensation (in words): added to various inducing compositions or foods; for kokumi sensation (in words): after undergoing an Amadori reaction
From the text: Sensory tests subjecting the flavour enhancing compounds to organoleptic evaluation indicate that the isolated flavouring compounds are substantially tasteless in the form of an aqueous solution, but are useful for imparting the enhanced effects when added even in small amounts to certain inducing compositions or food products containing a glutamate and/or nucleic acid as further described below. […] The thresholds given herein are meant to reflect minimum amounts for use in chicken broth as a matrix; however, one skilled in the art, armed with this disclosure, will recognize that this amount can be adjusted, either higher or lower, dependent upon the matrix used and the desired intensity of the kokumi effect. In general, a certain amount of salt is also necessary to achieve the kokumi effect; typically, about 12 mmol/L, which is found naturally in nearly all food products. The compounds can be applied to different kinds of foods including without limitation snacks, soups, cereals, sauces, fish, and fish paste. Unless otherwise indicated, all sensory tests for the samples are determined using triangle tests ([…] and Belitz, Z. Lebensm. Unters. Forsch., 1975, 159, 65-72) in three different sessions. The sensory panel is trained to evaluate aqueous solutions (2 mL each) of the following reference taste compounds dissolved in bottled water with a pH of 6.0: sucrose (25 mmol/L) for sweet taste; lactic acid (20 mmol/L) for sour taste; NaCl (30 mmol/L) for salty taste; caffeine (1 mmol/L) for bitter taste; and MSG (3 mmol/L) for umami taste, tannic acid (0.05%) for puckering astringency, and quercetin-O-β-D-glucopyranoside (0.01 mmol/L) for a velvety astringent, mouth-drying oral sensation. For the training of viscosity, a gelatin solution (0.5% in water) was used. […] Sensory analyses were performed in a sensory panel room at 19-22° C. in three different sessions using nose clamps. For recording the taste profiles, samples are prepared as indicated in the examples below. Flavor profiles of samples are determined in a triangle test in three different sessions. Panelists refrain from eating or drinking for at least 1 hour prior to the session. At the start of the session and before each trial, the subjects rinsed with water and expectorated. The participants receive a set of two blanks and one taste sample. Liquids are swirled around in the mouth briefly and expectorated. […] Each sample with additive is compared to two reference samples without additives.

Row | Structure (SMILES) | kokumi effect (in words) ([1]; Table 10) | Kokumi intensity (0-5) ([1]; additive 5 mmol/L) | Sensory descriptors ([2]; additive 5 mmol/L) | Intensity (0-5) ([2]; additive 5 mmol/L) | kokumi sensation (in words) [2] | kokumi sensation / flavour enhancing sensation (in words) ([3]; listed as formula (I)) | Kokumi intensity (0-5) ([1]; additive 10 mmol/L) | Intensity (0-5) ([2]; additive 10 mmol/L) | kokumi sensation (in words) [3] | Sensory descriptors ([2]; additive 10 mmol/L) | kokumi sensation / flavour enhancing sensation (in words) [3]
1 | CC=CSCC(NC(=O)CCC(N)C(=O)O)C(=O)NC(C[S+]([O-])C=CC)C(=O)O (racemic) [γ-L-glu-(E)-S-(propen-1-yl)-L-cys-(E)-S-(propen-1-yl)-L-cys-(+/−)-SO] | surprisingly potent kokumi effect | 4.5 | flavourless | 0 | no kokumi sensation | strong kokumi sensation; also recorded: surprisingly highly potent kokumi effect; also recorded: strong flavour enhancing sensation |  |  |  |  | 
2 | C=CCSC[C@H](N)C(=O)O [S-allyl-L-cysteine] |  |  |  |  |  |  | 3.3 | 1 | good kokumi sensation |  | 
3 | C/C=C/SC[C@H](NC(=O)CC[C@H](N)C(=O)O)C(=O)O [γ-L-glutamyl-(E)-S-1-propenyl-L-cysteine] |  |  |  |  |  |  | 3.3 | 0.5 | good kokumi sensation | onion aroma | 
4 | C/C=C/SC[C@H](NC(=O)CC[C@H](NC(=O)[C@H](CS/C=C/C)NC(=O)CC[C@H](N)C(=O)O)C(=O)O)C(=O)O [γ-L-glutamyl-(E)-S-1-propenyl-L-cysteinyl-γ-L-glutamyl-(E)-S-1-propenyl-L-cysteine] |  |  |  |  | no kokumi sensation |  | 3.3 | 0 |  | flavourless | strong flavour enhancing sensation
